This is an account of results in patent publication US7618997B2, “Diaminofluorescein derivatives” (Sekisui Medical Co., Ltd., priority 2000, dated 2009).

SMILES strings stand for the structures. Like-named read-outs stand apart in the source and are kept apart here.

Series [1] in a line: pH characteristics of triazole derivatives (fluorescence intensity vs pH). As to conditions: 1 μM in sodium phosphate buffers; for pKa: sodium phosphate buffers of various pH, from fluorescence intensity vs pH. In kind it is physicochemical. Here is the method:
Triazole derivatives prepared by the method disclosed in U.S. Pat. No. 5,874,590 (DAF-2T and DAF-5T, the structures thereof are shown below) and DAF-FM T were dissolved at 1 μM in sodium phosphate buffers adjusted to each of the pH values, and fluorescence intensity was measured. The excitation wavelength and fluorescence wavelength were 495-515 (nm) for DAF-2T, 505-520 (nm) for DAF-5T and 495-515 (nm) for DAF-FMT, respectively. […] As for DAF-FM T, a dissociable proton was not present in the triazole ring, and therefore the compound was not influenced by pKa and it gave a constant fluorescence intensity at pH 5.8 or higher.

Series [2] in a line: Photostability under direct sunlight irradiation. In kind it is physicochemical. As to conditions: 1 μM in 0.1 M sodium phosphate buffer pH 7.4, direct sunlight; versus DAF-1T, DAF-2T, DAF-4T, DAF-5T. The protocol: Photostability of the triazole derivatives produced by the method disclosed in U.S. Pat. No. 5,874,590 (DAF-1T, DAF-2T, DAF-4T and DAF-5T, the structures thereof are shown below) and DAF-FM T was tested by direct irradiation with sunlight. The dyes were each dissolved in 0.1 M sodium phosphate buffer (pH 7.4) at a concentration of 1 μM, and the solution was put into vials and exposed to direct sunlight under fine weather for a certain period of time. Samples were collected from the solutions, and fluorescence intensity was measured and compared with respective initial values.

In series [3] the test system is Bovine aorta endothelial cells. Briefly: Measurement of extracellularly produced nitrogen monoxide. In kind it is cell-based. As to conditions: 7 μM in PBS(+), 37° C., Ex 500 nm, Em 515 nm, stimulation with A23187, control with inhibitor of nitrogen monoxide synthetase. Here is the method:
Bovine aorta endothelial cells were cultured, and the cells were removed with trypsin and collected by centrifugation, and then suspended in 2 ml of PBS(+) in which DAF-FM (7 μM) was dissolved. These cells were transferred to a cell for fluorescence measurement, and fluorescence intensity was measured (Ex.: 500 nm, Em.: 515 nm) at 37° C. with stirring. The cells were stimulated with a calcium ionophore A23187 during the measurement so that the cells generated nitrogen monoxide. As control experiments, an inhibitor of nitrogen monoxide synthetase was added after the above measurement, or alternatively, the measurement was performed in the presence of the inhibitor from the beginning.

Setting [4] is: read-out: pKa of the hydroxyl group.
The mark [5] stands for this setting: read-out: pKa of the proton of the triazole ring.

By pKa is commonly meant the negative logarithm of the acid dissociation constant. Take `O=C1OC2(c3ccc(O)cc3Oc3cc(O)ccc32)c2cc3nn[nH]c3cc21` [DAF-2T]: the pKa is 6.27 in series [1] (setting [4]) and 7.94 in series [1] (setting [5]).
On to `O=C1OC2(c3cc(Cl)c(O)cc3Oc3cc(O)c(Cl)cc32)c2cc3nn[nH]c3cc21` [DAF-5T], for which the pKa in series [1] (setting [4]) was found to be 4.59; in series [1] (setting [5]) it was 7.41.
For the molecule `Cn1nnc2c3c(ccc21)C1(OC3=O)c2cc(F)c(O)cc2Oc2cc(O)c(F)cc21` [DAF-FM T, 2″,7″-Difluoro-3″,6″-dihydroxy-spiro[1′-methyltriazolo[4′,5′:4,5]isobenzofuran-1(3H),9″-[9H]xanthen]-3-one], in series [2], the “photostability (fluorescence intensity compared with initial value)” value is reported as “higher photostability than the other triazole compounds”. For the same molecule, the “pH at which fluorescence intensity is constant” value in series [1] (Ex/Em 495-515 nm) is listed as ≥ 5.8. The pKa in series [1] (setting [4]) came out at 4.38.
With `CNc1ccc2c(c1N)C(=O)OC21c2cc(F)c(O)cc2Oc2cc(O)c(F)cc21` [DAF-FM, 4-Amino-5-(N-methylamino)-2′,7′-difluoro-3′,6′-dihydroxy-spiro[isobenzofuran-1(3H),9′-[9H]xanthen]-3-one], the “fluorescence intensity increase on nitrogen monoxide generation by the cells” value in series [3] is given as “increase of fluorescence intensity was caused by nitrogen monoxide”.
